The values below come from patent US5677419A, “Cyclic vasoactive peptide analogs” (Hoffmann-La Roche Inc., priority 1994, dated 1997).

Each structure is given as a SMILES string. Where a SMILES comes first, the peptide text is derived from it. Bridges are numbered along the chain shown (N, C = ends). [ ]: non-standard residue; d: D form. Phe(4-NH2) = Nc1ccc(C[C@H](N)C(=O)O)cc1; Phe(4-F) = N[C@@H](Cc1ccc(F)cc1)C(=O)O; 1Nal = N[C@@H](Cc1cccc2ccccc12)C(=O)O; Nle = CCCC[C@H](N)C(=O)O

The first experiment has as its system guinea pigs. As to the kind of experiment: In vivo bronchodilator activity by tracheal instillation against histamine challenge. The note with it: anesthetized male guinea pigs, inhibition of histamine (i.v.)-induced rise in tracheal pressure. Further details: species or system guinea pig. On the procedure: The in vivo bronchodilator activity of VIP and VIP analogs in guinea pigs was assessed by the tracheal instillation route of administration. This technique utilized male guinea pigs (Hartley strain, Charles River) weighing 400-600 g. Animals were anesthetized with urethane (2 g/kg) intraperitoneally and a polyethylene cannula was inserted into the jugular vein for intraveneous drug administration.
The animals were tracheotomized and dosing solutions of distilled water or test compound dissolved in distilled water were administered into the trachea, approximately three-quarters the distance to the carina with a pipette. The concentration of the dosing solution was adjusted to deliver a constant volume of […]. The animals were placed supine for one minute to aid drug delivery to the lung. One minute later, spontaneous breathing was arrested with succinylcholine chloride (1.2 mg/kg) administered intraveneously, and the animals were ventilated with a HARVARD Model 680 small animal respirator set at 40 breaths/min and 4.0 cm^3 stroke volume. The animals were challenged with a maximal constrictory dose of histamine ([…], i.v.) and tracheal pressure (cm of water) was recorded from a STATHAM pressure transducer (P 32 AA).
The change in tracheal pressure was averaged for at least 3 control and 3 drug-treated animals and percent inhibition was calculated. The relative potency of compounds administered by the instillation route was determined by administering various doses of test compound and calculating the median effective dose (ED50 value). The ED50 was determined from log dose-response curves generated by at least 3 doses that caused inhibitory effects between 10% and 90%. The correlation coefficients for the regression line of each compound was always greater than 0.95.
For determination of the time course of inhibition for various compounds, the time between administration of compound and challenge with histamine was varied. The time course of activity was calculated as the time when inhibition decreased to 40%.
The results summarized in Table II show the in vivo bronchodilator activity of the VIP analogs in comparison to native VIP.
As to `CCCC[C@H](NC(=O)[C@@H]1CCC(=O)NCCCC[C@H](NC(=O)[C@@H](NC(=O)[C@H](Cc2ccc(O)cc2)NC(=O)[C@H](CC(N)=O)NC(=O)[C@H](CC(=O)O)NC(=O)[C@@H](NC(=O)[C@H](Cc2ccccc2)NC(=O)[C@@H](NC(=O)[C@H](C)NC(=O)[C@H](CC(=O)O)NC(=O)[C@H](CO)NC(=O)[C@H](Cc2c[nH]cn2)NC(C)=O)C(C)C)[C@@H](C)O)[C@@H](C)O)C(=O)N[C@@H](CC(C)C)C(=O)N[C@@H](CCCNC(=N)N)C(=O)N[C@@H](CCCCN)C(=O)N1)C(=O)N[C@@H](C)C(=O)N[C@H](C(=O)N[C@@H](CCCCN)C(=O)N[C@@H](CCCCN)C(=O)N[C@@H](Cc1ccc(O)cc1)C(=O)N[C@@H](CC(C)C)C(=O)N[C@@H](CC(N)=O)C(=O)N[C@@H](CO)C(=O)N[C@H](C(=O)N[C@@H](CC(C)C)C(=O)N[C@H](C(N)=O)[C@@H](C)O)C(C)C)C(C)C` [SEQ ID NO:26, Ac-[Lys^12,Glu^16,Nle^17,Val^26,Thr^28]-VIP cyclo (Lys^12 →Glu^16)] (Ac-HSDAVFTDNYTKLRKE[Nle]AVKKYLNSVLT-NH2; lactam 12-16), the “Bronchodilator activity of VIP analogs in guinea pigs, ED50” value worked out at 39 μg.

A further experiment concerns guinea pig tracheal smooth muscle. The experiment can be described thus: Tracheal relaxant activity of VIP analogs on isolated guinea pig tracheal rings. It counts as cell-based. The note with it: cumulative concentration response, relaxation as % of maximum response to VIP (10^-6 M=100%), three tissues pooled, linear regression. On the procedure: The relaxant activity of the VIP analogs were studied in a model utilizing guinea pig trachea. [Wasserman, M. A. et al., in Vasoactive Intestinal Peptide, S. I. Said, ed., Raven Press, New York 1982, pp 177-184] All tissues were taken from male albino guinea pig weighing 400-600 g, anesthetized with urethane (2 g/kg, i.p.). After exanguination, the trachea were removed and divided into four ring segments (3 mm length). Each ring was suspended by 30 gauge stainless steel wires in a 10 mL jacketed tissue bath and attached via 4-0 silk thread to a GRASS force displacement transducer (model FT03C, Grass Instruments Co., Quincy, Mass.), for isometric recording of tension. The smooth muscle was bathed in modified Krebs solution of the following composition: NaCl, 120 mM; KCl, 4.7 mM; CaCl2, 2.5 mM; MgSO4.7H2 O, 1.2 mM; NaHCO3, 25 mM; K2 HPO4 monobasic, 1.2 mM; and dextrose, 10 mM. Tissue baths were maintained at 37° C. and constantly bubbled with 95% O2 and 5% CO2. Responses were recorded on an 8 channel and a 4 channel HEWLETT-PACKARD (model 7702B and 7754A, respectively) recorder (Hewlett- Packard, Paramus, N.J.). Tracheal rings were placed under a resting tension of 1.5 g which was determined to be at or near optimal in preliminary experiments. Frequent readjustments of tension were required during the 60 minute stabilization period which followed. Tissues were rinsed at 15 minute intervals.
Cumulative concentration response curves were obtained for each tissue by successive […] increases in the bath concentration of VIP or VIP analogs according to the method of VanRossum [Arch. Int. Pharmacodyn., 143, 299-330 (1963)]. Only one cumulative dose response curve was obtained on a single tissue. To minimize variability between tissues, relaxant responses were expressed as a percentage of the maximum response obtained to VIP (10^-6 M=100%) added at the end of each concentration response experiment. Responses obtained from three tissues were pooled and EC50 values were determined by linear regression.
The results summarized in Table I show the tracheal relaxant activity of the VIP analogs in comparison to native VIP.
The EC50 is the concentration at which the effect is half-maximal. `CCCC[C@H](NC(=O)[C@@H]1CCC(=O)NCCCC[C@H](NC(=O)[C@@H](NC(=O)[C@H](Cc2ccc(O)cc2)NC(=O)[C@H](CC(N)=O)NC(=O)[C@H](CC(=O)O)NC(=O)[C@@H](NC(=O)[C@H](Cc2ccccc2)NC(=O)[C@@H](NC(=O)[C@H](C)NC(=O)[C@H](CC(=O)O)NC(=O)[C@H](CO)NC(=O)[C@H](Cc2c[nH]cn2)NC(C)=O)C(C)C)[C@@H](C)O)[C@@H](C)O)C(=O)N[C@@H](CC(C)C)C(=O)N[C@@H](CCCNC(=N)N)C(=O)N[C@@H](CCCCN)C(=O)N1)C(=O)N[C@@H](C)C(=O)N[C@H](C(=O)N[C@@H](CCCCN)C(=O)N[C@@H](CCCCN)C(=O)N[C@@H](Cc1ccc(O)cc1)C(=O)N[C@@H](CC(C)C)C(=O)N[C@@H](CC(N)=O)C(=O)N[C@@H](CO)C(=O)N[C@H](C(=O)N[C@@H](CC(C)C)C(=O)N[C@H](C(N)=O)[C@@H](C)O)C(C)C)C(C)C` [SEQ ID NO:26, Ac-[Lys^12,Glu^16,Nle^17,Val^26,Thr^28]-VIP cyclo (Lys^12 →Glu^16)] (Ac-HSDAVFTDNYTKLRKE[Nle]AVKKYLNSVLT-NH2; lactam 12-16) displayed an EC50 of 37 nM. Turning to `CCCC[C@H](NC(=O)[C@H](CCC(N)=O)NC(=O)[C@H](CCCCN)NC(=O)[C@H](CCCNC(=N)N)NC(=O)[C@H](CC(C)C)NC(=O)[C@H](CC(C)C)NC(=O)[C@@H](NC(=O)[C@H](Cc1ccc(OC)cc1)NC(=O)[C@H](CC(N)=O)NC(=O)[C@H](CC(=O)O)NC(=O)[C@@H](NC(=O)[C@H](Cc1ccccc1)NC(=O)[C@@H](NC(=O)[C@H](C)NC(=O)[C@H](CC(=O)O)NC(=O)[C@H](CO)NC(=O)[C@H](Cc1c[nH]cn1)NC(C)=O)C(C)C)[C@@H](C)O)[C@@H](C)O)C(=O)N[C@@H](C)C(=O)N[C@@H](C)C(=O)N[C@@H](CCCCN)C(=O)N[C@H]1CCCCNC(=O)C[C@@H](C(=O)N[C@H](C(=O)N[C@@H](CC(C)C)C(=O)N[C@H](C(N)=O)[C@@H](C)O)C(C)C)NC(=O)[C@H](CC(N)=O)NC(=O)[C@H](CC(C)C)NC(=O)[C@H](Cc2ccc(O)cc2)NC1=O` [SEQ ID NO:36, Ac-[O-Me-Tyr^10,Leu^12,Nle^17,Ala^19,Asp^25,Val^26,Thr^28]-VIP cyclo (Lys^21 →Asp^25)] (Ac-HSDAVFTDNY(Me)TLLRKQ[Nle]AAKKYLNDVLT-NH2; lactam 21-25), the EC50 is 0.84 nM. Still for that read-out and setting: under `CCCC[C@H](NC(=O)[C@H](CCC(N)=O)NC(=O)[C@H](CCCCN)NC(=O)[C@H](CCCNC(=N)N)NC(=O)[C@H](CC(C)C)NC(=O)[C@H](CC(C)C)NC(=O)[C@@H](NC(=O)[C@H](Cc1ccc(N)cc1)NC(=O)[C@H](CC(N)=O)NC(=O)[C@H](CC(=O)O)NC(=O)[C@@H](NC(=O)[C@H](Cc1ccc(F)cc1)NC(=O)[C@@H](NC(=O)[C@H](C)NC(=O)[C@H](CC(=O)O)NC(=O)[C@H](CO)NC(=O)[C@H](Cc1c[nH]cn1)NC(C)=O)C(C)C)[C@@H](C)O)[C@@H](C)O)C(=O)N[C@@H](C)C(=O)N[C@@H](C)C(=O)N[C@@H](CCCCN)C(=O)N[C@H]1CCCCNC(=O)C[C@@H](C(=O)N[C@H](C(=O)N[C@@H](CC(C)C)C(=O)N[C@H](C(N)=O)[C@@H](C)O)C(C)C)NC(=O)[C@H](CC(N)=O)NC(=O)[C@H](CC(C)C)NC(=O)[C@H](Cc2ccc(O)cc2)NC1=O` [SEQ ID NO:37, Ac-[p-F-Phe^6,p-NH2 -Phe^10,Leu^12,Nle^17,Ala^19,Asp^25,Val^26,Thr^28]-VIP cyclo (Lys^21 →Asp^25)] (Ac-HSDAV[Phe(4-F)]TDN[Phe(4-NH2)]TLLRKQ[Nle]AAKKYLNDVLT-NH2; lactam 21-25) stands 4.4 nM; under `CCCC[C@H](NC(=O)[C@H](CCC(N)=O)NC(=O)[C@H](CCCCN)NC(=O)[C@H](CCCNC(=N)N)NC(=O)[C@H](CC(C)C)NC(=O)[C@H](CCCCN)NC(=O)[C@@H](NC(=O)[C@H](Cc1ccc(OC)cc1)NC(=O)[C@H](CC(N)=O)NC(=O)[C@H](CC(=O)O)NC(=O)[C@@H](NC(=O)[C@H](Cc1ccccc1)NC(=O)[C@@H](NC(=O)[C@H](C)NC(=O)[C@H](CC(=O)O)NC(=O)[C@H](CO)NC(=O)[C@H](Cc1c[nH]cn1)NC(C)=O)C(C)C)[C@@H](C)O)[C@@H](C)O)C(=O)N[C@@H](C)C(=O)N[C@@H](C)C(=O)N[C@@H](CCCCN)C(=O)N[C@H]1CCCCNC(=O)C[C@@H](C(=O)N[C@H](C(=O)N[C@@H](CC(C)C)C(=O)N[C@H](C(N)=O)[C@@H](C)O)C(C)C)NC(=O)[C@H](CC(N)=O)NC(=O)[C@H](CC(C)C)NC(=O)[C@H](Cc2ccc(O)cc2)NC1=O` [SEQ ID NO:41, Ac-[O-Me-Tyr^10,Lys^12,Nle^17,Ala^19,Asp^25,Val^26,Thr^28]-VIP cyclo (Lys^21 →Asp^25)] (Ac-HSDAVFTDNY(Me)TKLRKQ[Nle]AAKKYLNDVLT-NH2; lactam 21-25), 2.6 nM. On the same count and under the same terms, for `CCCC[C@H](NC(=O)[C@H](CCC(N)=O)NC(=O)[C@H](CCCCN)NC(=O)[C@H](CCCNC(=N)N)NC(=O)[C@H](CC(C)C)NC(=O)[C@H](CCCCN)NC(=O)[C@@H](NC(=O)[C@H](Cc1ccc(O)cc1)NC(=O)[C@H](CC(N)=O)NC(=O)[C@H](CC(=O)O)NC(=O)[C@@H](NC(=O)[C@H](Cc1cccc2ccccc12)NC(=O)[C@@H](NC(=O)[C@H](C)NC(=O)[C@H](CC(=O)O)NC(=O)[C@H](CO)NC(=O)[C@H](Cc1c[nH]cn1)NC(C)=O)C(C)C)[C@@H](C)O)[C@@H](C)O)C(=O)N[C@@H](C)C(=O)N[C@@H](C)C(=O)N[C@@H](CCCCN)C(=O)N[C@H]1CCCCNC(=O)C[C@@H](C(=O)N[C@H](C(=O)N[C@@H](CC(C)C)C(=O)N[C@H](C(N)=O)[C@@H](C)O)C(C)C)NC(=O)[C@H](CC(N)=O)NC(=O)[C@H](CC(C)C)NC(=O)[C@H](Cc2ccc(O)cc2)NC1=O` [SEQ ID NO:50, Ac-[1-Nal^6,Lys^12,Nle^17,Ala^19,Asp^25,Val^26,Thr^28]-VIP cyclo (Lys^21 →Asp^25)] (Ac-HSDAV[1Nal]TDNYTKLRKQ[Nle]AAKKYLNDVLT-NH2; lactam 21-25) the value was 2.9 nM; for `CCCC[C@H](NC(=O)[C@H](C)NC(=O)[C@H](CCCCN)NC(=O)[C@H](CCCNC(=N)N)NC(=O)[C@H](CC(C)C)NC(=O)[C@H](CCCCN)NC(=O)[C@@H](NC(=O)[C@H](Cc1ccc(O)cc1)NC(=O)[C@H](CC(N)=O)NC(=O)[C@H](CCC(=O)O)NC(=O)[C@@H](NC(=O)[C@H](Cc1ccccc1)NC(=O)[C@@H](NC(=O)[C@H](C)NC(=O)[C@H](CC(=O)O)NC(=O)[C@H](CO)NC(=O)[C@H](Cc1c[nH]cn1)NC(C)=O)C(C)C)[C@@H](C)O)[C@@H](C)O)C(=O)N[C@@H](C)C(=O)N[C@@H](C)C(=O)N[C@@H](CCCCN)C(=O)N[C@H]1CCCCNC(=O)C[C@@H](C(=O)N[C@@H](CC(C)C)C(=O)N[C@@H](CCCCN)C(=O)N[C@@H](CCCCN)C(N)=O)NC(=O)[C@H](CC(N)=O)NC(=O)[C@H](CC(C)C)NC(=O)[C@H](Cc2ccc(O)cc2)NC1=O` [SEQ ID NO:63, Ac-[Glu^8,Lys^12,Ala^16,Nle^17,Ala^19,Asp^25,Leu^26,Lys^27,28]-VIP cyclo (Lys^21 →Asp^25)] (Ac-HSDAVFTENYTKLRKA[Nle]AAKKYLNDLKK-NH2; lactam 21-25), 0.9 nM.
